How the values were obtained:
Experiment in all cases: biochemical
Details in all cases: read-out: %Ctrl @ 1000nM
PDGFRA = PDGFRA (Homo sapiens, UniProt P16234)
SgK110 = target: T1, SgK110 (Homo sapiens, UniProt P0C264)
T1 construct: gene SBK3

PHKG2 = PHKG2 (Homo sapiens, UniProt P15735)
HIPK1 = HIPK1 (Homo sapiens, UniProt Q86Z02)
CAMK1D = CAMK1D (Homo sapiens, UniProt Q8IU85)
MST1R = MST1R (Homo sapiens, UniProt Q04912)
CLK1 = CLK1 (Homo sapiens, UniProt P49759)
PRKD2 = PRKD2 (Homo sapiens, UniProt Q9BZL6)
MEK6 = target: T2, MEK6 (Homo sapiens, UniProt P52564)
T2 construct: gene MAP2K6

MAP4K3 = MAP4K3 (Homo sapiens, UniProt Q8IVH8)
GRK2 = GRK2 (Homo sapiens, UniProt P25098)
[1] = target: JAK2(JH1domain-catalytic) (Homo sapiens, UniProt O60674)
PRKCD = PRKCD (Homo sapiens, UniProt Q05655)
MEK4 = target: T3, MEK4 (Homo sapiens, UniProt P45985)
T3 construct: gene MAP2K4

GAK = GAK (Homo sapiens, UniProt O14976)
p38-alpha = target: T4, p38-alpha (Homo sapiens, UniProt Q16539)
T4 construct: gene MAPK14

PLK2 = PLK2 (Homo sapiens, UniProt Q9NYY3)
PIK3CA(H1047L) = PIK3CA(H1047L) (Homo sapiens, UniProt P42336, H1047L)
DAPK1 = DAPK1 (Homo sapiens, UniProt P53355)
[2] = target: ABL1(Y253F)-phosphorylated (Homo sapiens, UniProt P00519, Y253F)
EGFR(L747-T751del,Sins) = EGFR(L747-T751del,Sins) (Homo sapiens, UniProt P00533, DEL747-750/T751S)
TRKA = target: T5, TRKA (Homo sapiens, UniProt P04629)
T5 construct: gene NTRK1

AKT3 = AKT3 (Homo sapiens, UniProt Q9Y243)
PAK2 = PAK2 (Homo sapiens, UniProt Q13177)
PIM3 = PIM3 (Homo sapiens, UniProt Q86V86)
NEK3 = NEK3 (Homo sapiens, UniProt P51956)
MERTK = MERTK (Homo sapiens, UniProt Q12866)
ERK8 = target: T6, ERK8 (Homo sapiens, UniProt Q8TD08)
T6 construct: gene MAPK15

MAPKAPK5 = MAPKAPK5 (Homo sapiens, UniProt Q8IW41)
CDC2L5 = target: T7, CDC2L5 (Homo sapiens, UniProt Q14004)
T7 construct: gene CDK13

NEK11 = NEK11 (Homo sapiens, UniProt Q8NG66)
ERK3 = target: T8, ERK3 (Homo sapiens, UniProt Q16659)
T8 construct: gene MAPK6

INSR = INSR (Homo sapiens, UniProt P06213)
[3] = target: EGFR(L747-S752del, P753S) (Homo sapiens, UniProt P00533, DEL747-752/P753S)
CSK = CSK (Homo sapiens, UniProt P41240)

Chain of PLK2 (Q9NYY3 whole entry): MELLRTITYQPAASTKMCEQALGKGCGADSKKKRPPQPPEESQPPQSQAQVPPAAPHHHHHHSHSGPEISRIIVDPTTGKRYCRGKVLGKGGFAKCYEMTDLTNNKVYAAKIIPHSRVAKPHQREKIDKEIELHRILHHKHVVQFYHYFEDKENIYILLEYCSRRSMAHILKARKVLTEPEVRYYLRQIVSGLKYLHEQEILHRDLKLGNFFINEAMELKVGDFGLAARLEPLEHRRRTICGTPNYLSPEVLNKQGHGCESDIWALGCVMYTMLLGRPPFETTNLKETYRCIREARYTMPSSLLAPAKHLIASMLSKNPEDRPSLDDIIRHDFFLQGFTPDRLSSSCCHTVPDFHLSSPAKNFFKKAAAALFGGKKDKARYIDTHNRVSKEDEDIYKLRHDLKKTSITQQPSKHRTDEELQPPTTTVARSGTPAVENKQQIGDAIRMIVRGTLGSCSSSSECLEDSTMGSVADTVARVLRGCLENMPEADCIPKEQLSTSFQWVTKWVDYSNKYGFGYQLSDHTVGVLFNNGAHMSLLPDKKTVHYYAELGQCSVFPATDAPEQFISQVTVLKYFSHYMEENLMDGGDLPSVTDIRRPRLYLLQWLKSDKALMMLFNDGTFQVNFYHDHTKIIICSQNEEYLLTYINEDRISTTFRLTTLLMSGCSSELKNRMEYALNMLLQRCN
Chain of NEK11 (Q8NG66 whole entry): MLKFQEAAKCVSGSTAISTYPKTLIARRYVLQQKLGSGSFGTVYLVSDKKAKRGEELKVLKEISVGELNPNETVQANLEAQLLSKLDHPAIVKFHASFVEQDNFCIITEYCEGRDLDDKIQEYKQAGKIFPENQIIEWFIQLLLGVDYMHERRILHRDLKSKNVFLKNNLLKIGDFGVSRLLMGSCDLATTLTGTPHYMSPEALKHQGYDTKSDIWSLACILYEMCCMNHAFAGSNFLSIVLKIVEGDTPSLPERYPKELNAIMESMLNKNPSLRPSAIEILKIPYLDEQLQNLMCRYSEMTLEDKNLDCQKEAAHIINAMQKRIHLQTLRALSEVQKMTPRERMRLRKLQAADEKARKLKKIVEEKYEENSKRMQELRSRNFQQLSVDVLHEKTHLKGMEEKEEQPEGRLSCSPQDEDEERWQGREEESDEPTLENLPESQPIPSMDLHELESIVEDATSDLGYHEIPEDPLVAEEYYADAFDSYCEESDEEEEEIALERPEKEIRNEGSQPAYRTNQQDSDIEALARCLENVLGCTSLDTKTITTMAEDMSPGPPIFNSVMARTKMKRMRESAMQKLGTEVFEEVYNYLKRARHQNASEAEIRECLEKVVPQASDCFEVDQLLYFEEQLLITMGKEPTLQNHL
Chain of MAPKAPK5 (Q8IW41 whole entry): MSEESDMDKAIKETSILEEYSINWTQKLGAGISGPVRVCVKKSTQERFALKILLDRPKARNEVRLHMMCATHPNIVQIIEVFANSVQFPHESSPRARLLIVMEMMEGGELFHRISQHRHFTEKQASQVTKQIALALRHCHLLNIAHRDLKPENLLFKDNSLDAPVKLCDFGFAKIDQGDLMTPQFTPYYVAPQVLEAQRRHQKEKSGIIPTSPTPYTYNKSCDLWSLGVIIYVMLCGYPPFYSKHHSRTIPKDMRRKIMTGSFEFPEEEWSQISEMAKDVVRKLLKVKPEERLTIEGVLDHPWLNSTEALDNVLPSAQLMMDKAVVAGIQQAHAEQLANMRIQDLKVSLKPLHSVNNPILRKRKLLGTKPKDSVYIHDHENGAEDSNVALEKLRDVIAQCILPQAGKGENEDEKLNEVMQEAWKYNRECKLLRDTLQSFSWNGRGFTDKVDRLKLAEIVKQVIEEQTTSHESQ
Chain of PAK2 (Q13177 whole entry): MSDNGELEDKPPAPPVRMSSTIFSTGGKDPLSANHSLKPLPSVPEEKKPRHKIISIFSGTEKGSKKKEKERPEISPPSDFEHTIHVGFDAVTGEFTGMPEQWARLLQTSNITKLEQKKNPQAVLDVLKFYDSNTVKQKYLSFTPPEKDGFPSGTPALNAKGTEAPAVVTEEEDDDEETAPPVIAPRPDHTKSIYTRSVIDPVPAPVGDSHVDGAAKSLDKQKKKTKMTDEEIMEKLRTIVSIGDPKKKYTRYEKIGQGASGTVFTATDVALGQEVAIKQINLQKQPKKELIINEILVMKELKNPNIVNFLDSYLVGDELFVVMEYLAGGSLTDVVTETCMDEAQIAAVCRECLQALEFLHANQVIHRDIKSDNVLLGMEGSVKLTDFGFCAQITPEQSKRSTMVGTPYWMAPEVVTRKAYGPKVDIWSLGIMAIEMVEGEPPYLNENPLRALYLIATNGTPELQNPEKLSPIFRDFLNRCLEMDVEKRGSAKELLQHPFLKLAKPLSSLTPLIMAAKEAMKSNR
Chain of JAK2(JH1domain-catalytic) (O60674 whole entry): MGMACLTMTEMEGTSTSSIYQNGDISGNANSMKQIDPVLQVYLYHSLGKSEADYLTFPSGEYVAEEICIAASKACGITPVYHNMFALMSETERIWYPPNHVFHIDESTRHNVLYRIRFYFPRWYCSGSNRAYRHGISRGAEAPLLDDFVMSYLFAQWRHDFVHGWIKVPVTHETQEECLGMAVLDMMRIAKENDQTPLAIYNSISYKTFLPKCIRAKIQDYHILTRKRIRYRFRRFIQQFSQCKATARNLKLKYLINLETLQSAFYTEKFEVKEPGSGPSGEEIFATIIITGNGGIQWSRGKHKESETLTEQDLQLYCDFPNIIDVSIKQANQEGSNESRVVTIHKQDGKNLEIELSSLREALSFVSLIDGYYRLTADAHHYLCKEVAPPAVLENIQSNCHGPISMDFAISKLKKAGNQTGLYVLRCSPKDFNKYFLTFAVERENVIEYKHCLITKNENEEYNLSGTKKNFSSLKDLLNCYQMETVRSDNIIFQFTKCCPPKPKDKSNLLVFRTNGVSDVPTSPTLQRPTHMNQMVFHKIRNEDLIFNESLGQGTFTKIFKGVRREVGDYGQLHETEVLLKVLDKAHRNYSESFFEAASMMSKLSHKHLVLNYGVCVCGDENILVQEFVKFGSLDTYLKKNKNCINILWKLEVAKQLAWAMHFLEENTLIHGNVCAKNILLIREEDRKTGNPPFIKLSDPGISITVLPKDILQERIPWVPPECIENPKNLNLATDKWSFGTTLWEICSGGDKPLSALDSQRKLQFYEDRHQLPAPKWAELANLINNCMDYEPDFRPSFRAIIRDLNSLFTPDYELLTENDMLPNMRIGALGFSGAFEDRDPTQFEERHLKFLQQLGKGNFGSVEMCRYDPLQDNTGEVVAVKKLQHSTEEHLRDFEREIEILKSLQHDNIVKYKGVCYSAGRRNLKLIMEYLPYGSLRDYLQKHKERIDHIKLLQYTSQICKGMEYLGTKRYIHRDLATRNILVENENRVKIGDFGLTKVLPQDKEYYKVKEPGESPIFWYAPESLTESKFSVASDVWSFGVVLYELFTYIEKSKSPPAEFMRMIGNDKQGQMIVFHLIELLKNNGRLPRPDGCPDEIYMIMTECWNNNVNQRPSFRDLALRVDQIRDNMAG
T7 sequence (Q14004 whole entry): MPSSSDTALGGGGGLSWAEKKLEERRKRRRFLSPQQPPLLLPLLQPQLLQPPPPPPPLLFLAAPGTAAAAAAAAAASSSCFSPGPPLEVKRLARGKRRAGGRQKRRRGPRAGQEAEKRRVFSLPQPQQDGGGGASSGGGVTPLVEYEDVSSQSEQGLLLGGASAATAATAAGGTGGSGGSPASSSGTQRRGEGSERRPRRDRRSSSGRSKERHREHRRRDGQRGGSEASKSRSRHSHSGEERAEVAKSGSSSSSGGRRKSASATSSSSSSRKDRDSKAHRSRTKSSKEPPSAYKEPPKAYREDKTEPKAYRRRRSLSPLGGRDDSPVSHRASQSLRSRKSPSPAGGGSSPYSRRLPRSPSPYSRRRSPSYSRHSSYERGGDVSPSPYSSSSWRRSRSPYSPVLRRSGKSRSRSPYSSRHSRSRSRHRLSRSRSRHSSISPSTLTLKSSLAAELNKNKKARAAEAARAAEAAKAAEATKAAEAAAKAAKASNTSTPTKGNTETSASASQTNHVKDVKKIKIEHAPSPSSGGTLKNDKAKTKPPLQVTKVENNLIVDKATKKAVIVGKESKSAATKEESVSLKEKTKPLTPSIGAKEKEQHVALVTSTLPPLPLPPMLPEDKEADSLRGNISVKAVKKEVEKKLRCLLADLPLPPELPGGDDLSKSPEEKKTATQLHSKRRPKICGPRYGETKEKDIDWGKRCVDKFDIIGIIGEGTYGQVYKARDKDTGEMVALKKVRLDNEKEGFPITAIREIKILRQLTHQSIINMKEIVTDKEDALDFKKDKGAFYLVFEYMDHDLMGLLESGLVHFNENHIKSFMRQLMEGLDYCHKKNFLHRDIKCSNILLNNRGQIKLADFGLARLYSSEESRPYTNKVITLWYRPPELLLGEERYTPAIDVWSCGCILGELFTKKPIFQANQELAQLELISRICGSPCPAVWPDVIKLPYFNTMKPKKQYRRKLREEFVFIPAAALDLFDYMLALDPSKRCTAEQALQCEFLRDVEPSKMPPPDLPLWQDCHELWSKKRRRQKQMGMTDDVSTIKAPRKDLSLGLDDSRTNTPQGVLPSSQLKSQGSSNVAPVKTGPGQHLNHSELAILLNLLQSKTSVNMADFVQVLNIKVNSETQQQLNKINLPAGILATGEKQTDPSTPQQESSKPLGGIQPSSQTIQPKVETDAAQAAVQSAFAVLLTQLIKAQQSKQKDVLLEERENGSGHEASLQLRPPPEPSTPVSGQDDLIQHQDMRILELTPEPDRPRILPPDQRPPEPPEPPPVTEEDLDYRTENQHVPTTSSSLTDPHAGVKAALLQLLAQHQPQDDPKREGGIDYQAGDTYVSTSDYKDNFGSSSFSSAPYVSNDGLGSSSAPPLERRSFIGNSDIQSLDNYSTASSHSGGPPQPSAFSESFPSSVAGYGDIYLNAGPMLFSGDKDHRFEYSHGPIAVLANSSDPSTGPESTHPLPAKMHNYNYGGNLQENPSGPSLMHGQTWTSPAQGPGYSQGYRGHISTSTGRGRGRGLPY

remaining activity at 1 µM (PDGFRA): 100% | remaining activity at 1 µM (SgK110): 98% | remaining activity at 1 µM (PHKG2): 79% | remaining activity at 1 µM (HIPK1): 85% | remaining activity at 1 µM (CAMK1D): 71% | remaining activity at 1 µM (MST1R): 97% | remaining activity at 1 µM (CLK1): 92% | remaining activity at 1 µM (PRKD2): 92% | remaining activity at 1 µM (MEK6): 98% | remaining activity at 1 µM (MAP4K3): 96% | remaining activity at 1 µM (GRK2): 96% | remaining activity at 1 µM [1]: 100% | remaining activity at 1 µM (PRKCD): 94% | remaining activity at 1 µM (MEK4): 96% | remaining activity at 1 µM (GAK): 95% | remaining activity at 1 µM (p38-alpha): 62% | remaining activity at 1 µM (PLK2): 100% | remaining activity at 1 µM (PIK3CA(H1047L)): 100% | remaining activity at 1 µM (DAPK1): 100% | remaining activity at 1 µM [2]: 98% | remaining activity at 1 µM (EGFR(L747-T751del,Sins)): 97% | remaining activity at 1 µM (TRKA): 3.2% | remaining activity at 1 µM (AKT3): 96% | remaining activity at 1 µM (PAK2): 85% | remaining activity at 1 µM (PIM3): 94% | remaining activity at 1 µM (NEK3): 94% | remaining activity at 1 µM (MERTK): 61% | remaining activity at 1 µM (MAPKAPK5): 100% | remaining activity at 1 µM (CDC2L5): 100% | remaining activity at 1 µM (NEK11): 87% | remaining activity at 1 µM (ERK3): 96% | remaining activity at 1 µM (INSR): 100% | remaining activity at 1 µM [3]: 83% | remaining activity at 1 µM (CSK): 92%
Compound: Cc1cn(-c2cc(NC(=O)c3ccc4c(c3)CN(c3cncnc3)C[C@@H]4C)cc(C(F)(F)F)c2)cn1 [Compound 6j]
remaining activity at 1 µM (ERK8): 84%
